# Laboratory results published in patent US11564990B2, “Multi-drug-loading-site, high drug-loading capacity ligand-drug conjugate” (JenKem Technology Co., Ltd. (Beijing), priority 2017, dated 2023).
# Columns and labels:
# [1] = Antibody pharmacokinetic assay in rats (total antibody in plasma by HER2 ELISA); conditions: SD rats, intravenous 30 mg/kg, compared with control Ab
# [2] = test system: colorectal cancer model (HCT-116); assay: Efficacy test in colorectal cancer model in which HER2 was not expressed; format: in vivo, nude mice; conditions: HCT-116 model
# Method: Experimental method: Evaluation of the efficacy of the sample was performed using a colorectal cancer model in which HER2 was not expressed. The cell line at logarithmic growth phase was inoculated subcutaneously into the right side of the immunodeficient mice, and the cell inoculation amount was 5×10^6 cells/mouse. After the transplanted tumor was formed, allow it grow in the mice for 2 passage before use. The tumor tissue with strong growth period was cut into tumor pieces with a diameter of about 2 mm, and inoculated subcutaneously into the right torso of nude mice under sterile conditions. The formed tumor tissue is measured by a vernier caliper, and the long and short diameters are represented by a and b, respectively, and the tumor volume (TV) is calculated as: TV=½×a×b^2. Animals were randomized after tumor growth to 100-150 mm^3. Both models were divided into vehicle group, control group (recombinant anti-HER2 humanized monoclonal antibody Ab, 30 mg/kg) and test group I (administered with APEGA-8, 9, 10, respectively (prepared in Example 6-8), the dose was 30 mg/kg in terms of Ab, and the test group II (PEG-Irinotecan (prepared in Example 5), the dose was 30 mg/kg). Both the test article and the control drug were administered once a week vial the tail vein for a total of three administrations. The diameter of the transplanted tumor was measured twice a week during the entire experiment, and the body weight of the mice was weighed. After the end of the administration, continue to observe the animals for a week, and then they were sacrificed.
# [3] = Determination of drug antibody coupling ratio (DAR) by UV/Vis method; format: physicochemical; conditions: two-step coupling products, UV-Vis; moles of drug divided by moles of antibody
# Description: In formula (1), the sum of the absorbances of the drug and the antibody at 280 nm constitutes the total absorbance (A280): A280=(εdrug^280Cdrug+εmAb^280CmAb)l (1)
# wherein εdrug^280 is the extinction coefficient of the drug at 280 nm; Cdrug is the drug concentration (mg/mL); […] the extinction coefficient of the antibody at 280 nm; CmAb is the concentration of the antibody.
# Equation (2) is the parallel equation for the total absorbance of the drug at the maximum absorption λ(D): Aλ(D)=(εdrug^λ(D)Cdrug+εmAb^λ(D)CmAb)l (2)
# wherein εdrug^λ(D) is the extinction coefficient of the drug at λ(D)nm; Cdrug is the drug concentration (mg/mL); εmAb^λ(D) is the extinction coefficient of the antibody at λ(D)nm; CmAb is the concentration of the antibody (mg/mL).
# The concentration of antibody and drug can be calculated separately by two equations (1) and (2). CmAb=(A280εdrug^λ(D)−Aλ(D)εdrug^280)/[(εmAb^280εdrug^λ(D)−εmAb^λ(D)εdrug^280)l] (3) Cdrug=(A280εmAb^λ(D)−Aλ(D)εmAb^280)/[(εdrug^280εmAb^λ(D)−εdrug^λ(D)εmAb^280)l] (4)
# The average drug antibody coupling ratio (DAR) calculated by dividing
# [formula] is expressed as the number of moles of drug divided by the number of moles of antibody: […]
compound,measurement,setting,value
CCc1c2c(nc3ccc(OC(=O)N4CCC(N5CCCCC5)CC4)cc13)-c1cc3c(c(=O)n1C2)COC(=O)[C@]3(C)CC [APEGA-8],elimination rate in rat plasma (total antibody),[1],"increased to a certain extent compared with the control Ab, but the decline trend was not significant"
same,antitumor activities in relation to drug loading,"[2]; 30 mg/kg in terms of Ab, QW×3",increased with the drug loading
same,efficacy compared with group II (PEG-Irinotecan 30 mg/kg),"[2]; irinotecan dose 2.6, 4.2, 11.2 mg/kg respectively",still better than group II
same,Tumor inhibition rate (%),"[2]; third week of administration, 30 mg/kg QW×3 via tail vein",40.1%
same,DAR (average drug antibody coupling ratio),[3],22.2
